Results from PubChem BioAssay AID2060511 (Molecular Pharmacology Branch, DTP, NCI, 2025).

System: 422866-222-R5-J1-PDC spheroids with HUVEC/MSC, viability
Experiment: Anticancer human tumor 422866-222-R5-J1-PDC patient-derived pancreatic adenocarcinoma cell line growth inhibition [GQUAD]
Details: for IC50: curve of first compound; for viability, T/C: stronger effect = lower value
Procedure, shortened: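 Multi-cell-type spheroids of tumor cells with HUVEC and mesenchymal stem cells, treated with drug combinations. Concentrations descend in half-log steps from near clinical Cmax, or from 10 microM where Cmax is unknown; viability read-out.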

[1] = second compound 0.0316 µM, first compound 0.0316 µM
[2] = second compound 0.0316 µM, first compound 0.1 µM
[3] = second compound 0.0316 µM, first compound 0.316 µM
[4] = second compound 0.0316 µM, first compound 1 µM
[5] = second compound 0.0316 µM, first compound 3.16 µM
[6] = second compound 0.0316 µM, first compound 10 µM
[7] = second compound 0.1 µM, first compound 0.0316 µM
[8] = second compound 0.1 µM, first compound 0.1 µM
[9] = second compound 0.1 µM, first compound 0.316 µM
[10] = second compound 0.1 µM, first compound 1 µM
[11] = second compound 0.1 µM, first compound 3.16 µM
[12] = second compound 0.1 µM, first compound 10 µM
[13] = second compound 0.316 µM, first compound 0.0316 µM
[14] = second compound 0.316 µM, first compound 0.1 µM
[15] = second compound 0.316 µM, first compound 0.316 µM
[16] = second compound 0.316 µM, first compound 1 µM
[17] = second compound 0.316 µM, first compound 3.16 µM
[18] = second compound 0.316 µM, first compound 10 µM
[19] = second compound 1 µM, first compound 0.0316 µM
[20] = second compound 1 µM, first compound 0.1 µM
[21] = second compound 1 µM, first compound 0.316 µM
[22] = second compound 1 µM, first compound 1 µM
[23] = second compound 1 µM, first compound 3.16 µM
[24] = second compound 1 µM, first compound 10 µM
[25] = second compound 3.16 µM, first compound 0.0316 µM
[26] = second compound 3.16 µM, first compound 0.1 µM
[27] = second compound 3.16 µM, first compound 0.316 µM
[28] = second compound 3.16 µM, first compound 1 µM
[29] = second compound 3.16 µM, first compound 3.16 µM
[30] = second compound 3.16 µM, first compound 10 µM
[31] = second compound 10 µM, first compound 0.0316 µM
[32] = second compound 10 µM, first compound 0.1 µM
[33] = second compound 10 µM, first compound 0.316 µM
[34] = second compound 10 µM, first compound 1 µM
[35] = second compound 10 µM, first compound 3.16 µM
[36] = second compound 10 µM, first compound 10 µM
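Also: spheroids exposed to compounds for seven days before reading.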
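For viability, T/C in this document: percent viability relative to DMSO vehicle control taken as 100%.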

CC(C)(O)C1CCC(Nc2ccc3ncc(-c4cccc(C(F)(F)F)c4)n3n2)CC1 (stereo unspecified) + CN(C)c1ccc(Nc2c3ccc(NC(=O)CCN4CCCC4)cc3nc3cc(NC(=O)CCN4CCCC4)ccc23)cc1 showed an IC50 (second compound 0.0316 µM) of 2090 nM, an IC50 (second compound 0.1 µM) of 2670 nM and an IC50 (second compound 0.316 µM) of 1710 nM. The IC50 (second compound 1 µM) was 1770 nM, the IC50 (second compound 3.16 µM) was 1570 nM and the IC50 (second compound 10 µM) was greater than 10000 nM. The viability, T/C [1] was 88%, the viability, T/C [2] was 80.5% and the viability, T/C [3] was 92.9%. The viability, T/C [4] was 71.8%, the viability, T/C [5] was 38.4% and the viability, T/C [6] was 33.1%. The viability, T/C [7] was 90.2%, the viability, T/C [8] was 87.4% and the viability, T/C [9] was 81.1%. It also gave a viability, T/C [10] of 68.5%, a viability, T/C [11] of 45.7% and a viability, T/C [12] of 39%. For the same compound, the viability, T/C [13] was 72.7%, the viability, T/C [14] was 82.4% and the viability, T/C [15] was 66.1%. The viability, T/C [16] was 58.5%, the viability, T/C [17] was 41.3% and the viability, T/C [18] was 36.9%. It also gave a viability, T/C [19] of 85.6%, a viability, T/C [20] of 80.2% and a viability, T/C [21] of 77.2%. For the same compound, the viability, T/C [22] was 57.6%, the viability, T/C [23] was 42.1% and the viability, T/C [24] was 35.4%. It also gave a viability, T/C [25] of 82.2%, a viability, T/C [26] of 77.2% and a viability, T/C [27] of 64.3%. For the same compound, the viability, T/C [28] was 63.5%, the viability, T/C [29] was 33% and the viability, T/C [30] was 40.6%. It also gave a viability, T/C [31] of 77.4%, a viability, T/C [32] of 69.6% and a viability, T/C [33] of 79.1%. The viability, T/C [34] was 75.4%, the viability, T/C [35] was 63.2% and the viability, T/C [36] was 55.5%.

Cc1[nH]c2ccccc2c1CCNCc1ccc(/C=C/C(=O)NO)cc1 + CN(C)c1ccc(Nc2c3ccc(NC(=O)CCN4CCCC4)cc3nc3cc(NC(=O)CCN4CCCC4)ccc23)cc1 was tested, and the IC50 (second compound 0.0316 µM) was greater than 316 nM, the IC50 (second compound 0.1 µM) was greater than 316 nM and the IC50 (second compound 0.316 µM) was greater than 316 nM. It also gave an IC50 (second compound 1 µM) greater than 316 nM, an IC50 (second compound 3.16 µM) greater than 316 nM and an IC50 (second compound 10 µM) greater than 316 nM. For the same compound, the viability, T/C (second compound 0.0316 µM, first compound 0.000999 µM) was 118%, the viability, T/C (second compound 0.0316 µM, first compound 0.00316 µM) was 98.7% and the viability, T/C (second compound 0.0316 µM, first compound 0.00999 µM) was 116%. The viability, T/C [1] was 83.2%, the viability, T/C (second compound 0.0316 µM, first compound 0.0999 µM) was 54.3% and the viability, T/C [3] was 56.8%. It also gave a viability, T/C (second compound 0.1 µM, first compound 0.000999 µM) of 98.3%, a viability, T/C (second compound 0.1 µM, first compound 0.00316 µM) of 102% and a viability, T/C (second compound 0.1 µM, first compound 0.00999 µM) of 119%. The viability, T/C [7] was 89.9%, the viability, T/C (second compound 0.1 µM, first compound 0.0999 µM) was 73.5% and the viability, T/C [9] was 61.5%. The viability, T/C (second compound 0.316 µM, first compound 0.000999 µM) was 105%, the viability, T/C (second compound 0.316 µM, first compound 0.00316 µM) was 102% and the viability, T/C (second compound 0.316 µM, first compound 0.00999 µM) was 98.7%. The viability, T/C [13] was 76%, the viability, T/C (second compound 0.316 µM, first compound 0.0999 µM) was 69.4% and the viability, T/C [15] was 57%. It also gave a viability, T/C (second compound 1 µM, first compound 0.000999 µM) of 77.3%, a viability, T/C (second compound 1 µM, first compound 0.00316 µM) of 91.9% and a viability, T/C (second compound 1 µM, first compound 0.00999 µM) of 131%. It also gave a viability, T/C [19] of 112%, a viability, T/C (second compound 1 µM, first compound 0.0999 µM) of 63.3% and a viability, T/C [21] of 52%. It also gave a viability, T/C (second compound 3.16 µM, first compound 0.000999 µM) of 89.5%, a viability, T/C (second compound 3.16 µM, first compound 0.00316 µM) of 97.3% and a viability, T/C (second compound 3.16 µM, first compound 0.00999 µM) of 102%. For the same compound, the viability, T/C [25] was 103%, the viability, T/C (second compound 3.16 µM, first compound 0.0999 µM) was 80.4% and the viability, T/C [27] was 56.4%. The viability, T/C (second compound 10 µM, first compound 0.000999 µM) was 96%, the viability, T/C (second compound 10 µM, first compound 0.00316 µM) was 95.4% and the viability, T/C (second compound 10 µM, first compound 0.00999 µM) was 98.8%. The viability, T/C [31] was 109%, the viability, T/C (second compound 10 µM, first compound 0.0999 µM) was 75.2% and the viability, T/C [33] was 53.7%.

For COc1ccc([C@@H](O)c2cc(-c3ncnc4cc(N5CCOCC5)ccc34)c(F)cc2Cl)nn1 + Cc1[nH]c2ccc(F)cc2c1-c1nc2c3cccnc3c3ncccc3c2[nH]1, the IC50 (second compound 0.0316 µM) was 4200 nM, the IC50 (second compound 0.1 µM) was 5780 nM and the IC50 (second compound 0.316 µM) was 3270 nM. The IC50 (second compound 1 µM) was 4470 nM, the IC50 (second compound 3.16 µM) was 2630 nM and the IC50 (second compound 10 µM) was 2130 nM. For the same compound, the viability, T/C [1] was 81.2%, the viability, T/C [2] was 79.2% and the viability, T/C [3] was 72.2%. The viability, T/C [4] was 68%, the viability, T/C [5] was 54.7% and the viability, T/C [6] was 35.8%. For the same compound, the viability, T/C [7] was 90.6%, the viability, T/C [8] was 78.8% and the viability, T/C [9] was 68.6%. The viability, T/C [10] was 60.2%, the viability, T/C [11] was 62.5% and the viability, T/C [12] was 42.1%. The viability, T/C [13] was 95.4%, the viability, T/C [14] was 82.4% and the viability, T/C [15] was 74.9%. It also gave a viability, T/C [16] of 60.6%, a viability, T/C [17] of 51.3% and a viability, T/C [18] of 38.8%. For the same compound, the viability, T/C [19] was 75.6%, the viability, T/C [20] was 81.8% and the viability, T/C [21] was 66.9%. It also gave a viability, T/C [22] of 62.8%, a viability, T/C [23] of 57.5% and a viability, T/C [24] of 38.5%. The viability, T/C [25] was 80.7%, the viability, T/C [26] was 73% and the viability, T/C [27] was 65.4%. It also gave a viability, T/C [28] of 64.8%, a viability, T/C [29] of 45.3% and a viability, T/C [30] of 34.6%. For the same compound, the viability, T/C [31] was 64.2%, the viability, T/C [32] was 69% and the viability, T/C [33] was 78.5%. The viability, T/C [34] was 57.1%, the viability, T/C [35] was 46.2% and the viability, T/C [36] was 33.9%.
